{
  "source": "ChEMBL document CHEMBL1150952",
  "about": "“Isolation, identification, and biological activity of isopersin, a new compound from avocado idioblast oil cells” (1998)",
  "key": {"Spodoptera exigua [1]": {"test_system": "Spodoptera exigua", "experiment": "Insecticidal activity against early instar Spodoptera exigua assessed as mortality at 500 ug/g after 7 days by artificial diet bioassay relative to control", "type": "functional"}, "Spodoptera exigua [2]": {"test_system": "Spodoptera exigua", "experiment": "Insecticidal activity against early instar Spodoptera exigua assessed as larval weight at 500 ug/g after 7 days by artificial diet bioassay", "type": "functional"}},
  "data": [
    {"compound": "CCCCC/C=C\\C/C=C\\CCCCCCCC(=O)CC(CO)OC(C)=O", "note": "(stereo not drawn) [ISOPERSIN]", "values": [
      {"measurement": "Activity", "setting": "Spodoptera exigua [1]", "result": 12, "unit": "%"},
      {"measurement": "Activity", "setting": "Spodoptera exigua [2]", "result": 26.45, "unit": "mg"}
    ]},
    {"compound": "CCCCC/C=C\\C/C=C\\CCCCCCCC(=O)C[C@@H](O)COC(C)=O", "values": [
      {"measurement": "Activity", "setting": "Spodoptera exigua [1]", "result": 80, "unit": "%"}
    ]}
  ]
}
